For orientation: IC50 means the concentration that inhibits the measured activity by half.

The first experiment addresses T1, RORγ (Homo sapiens, UniProt P51449).
T1 construct: The concentration of B-RORγ LBD was 40 nM
T1 sequence (P51449 269-508 limits assumed): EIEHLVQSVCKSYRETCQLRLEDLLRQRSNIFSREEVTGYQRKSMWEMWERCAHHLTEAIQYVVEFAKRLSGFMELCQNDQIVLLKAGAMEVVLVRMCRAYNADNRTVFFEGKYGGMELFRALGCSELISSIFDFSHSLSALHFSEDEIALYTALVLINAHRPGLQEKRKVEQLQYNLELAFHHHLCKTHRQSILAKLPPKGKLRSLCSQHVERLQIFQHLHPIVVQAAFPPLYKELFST
The experiment in a line: Fluorescence resonance energy transfer (FRET) test, B-RORγ LBD / Biotin-SRC1. It counts as biochemical.
Settings: not given
On the procedure:
Biological Example 1 Fluorescence Resonance Energy Transfer (FRET) Test
(1) Preparation of RORγ Test Buffer and 10 mM of DTT
100 mL of 1× Basic test buffer (HEPES (pH 7.4), 100 mM NaCl, 0.01% BSA) was prepared, and 154.25 mg of DTT was added. The mixture was well mixed.
(2) Preparation of Compound with Gradient Concentration
a. Standard compound was prepared: Standard compound was diluted with 100% DMSO to 2.5 mM, then diluted 3-fold with 11 serial dilutions to a final concentration of […];
b. Test compound was prepared referring to the standard compound.
(3) Preparation of 1× Protein Solution Mixture
a. Preparation of the desired amount of 2× B-RORγ LBD/SA-APC protein mixture: The concentration of B-RORγ LBD was 40 nM, and the concentration of SA-APC was 20 nM. They were mixed by gently inversion, and incubated at room temperature for 15 minutes. Then 400 nM of biotin was added. The mixture was mixed by gently inversion, and incubated at room temperature for 10 minutes;
b. Preparation of the desired amount of 2× Biotin-SRC1/SA-eu protein mixture: The concentration of Bioin-SRC1 was 40 nM, and the concentration of SA-eu was 20 nM. They were mixed by gently inversion, and incubated at room temperature for 15 minutes. Then 200 nM of biotin was added. The mixture was mixed by gently inversion, and incubated at room temperature for 10 minutes;
c. The protein mixtures prepared in step a and step b were mixed at a ratio of 1:1, and incubated at room temperature for 5 minutes;
d. 25 μL of the mixture from step c was added to the 384-well plate containing the test compound;
e. The mixture was centrifuged at 1000 rpm for one minute;
f. The mixture was incubated for 1 hour at room temperature.
(4) Data Collection and Calculation
After incubation at room temperature for 1 hour, the fluorescence values at 665 nm and 615 nm were measured with an EnVision plate reader, and the inhibition rate was calculated.
Inhibition rate %)=[(X−Min)/(Max−Min)]×100%
X is the fluorescence value ratio of “665/615” of the test compound; Min is the average value of “665/615” of the DMSO blank control; Max is the average value of “665/615” of the 10 μM SRC.
Molecule `CCS(=O)(=O)c1ccc([C@H](CO)NC(=O)c2ccc(N3C[C@H](Oc4ccc(C(F)(F)F)cc4)C[C@H]3CN3CCOC[C@@H]3C)cc2)cc1` [Example 35, N—((R)-1-(4-(ethylsulfonyl)phenyl)-2-hydroxyethyl)-4-((2S,4R)-2-(((S)-3-methylmorpholinyl)methyl)-4-(4-(trifluoromethyl)phenoxy)pyrrolidin-1-yl)benzamide] had an IC50 of 135 nM.

`CCS(=O)(=O)c1ccc([C@H](CO)NC(=O)c2ccc(N3C[C@H](Oc4ccc(C(F)(F)F)cc4)C[C@H]3COC(F)F)cc2)cc1` [Example 40] had a concentration for half-maximal inhibition (IC50) of 25 nM.

As to `CCS(=O)(=O)c1ccc([C@H](CO)NC(=O)c2ccc(N3C[C@H](Oc4ccc(C(F)(F)F)cc4)C[C@H]3COCCC(F)F)cc2)cc1` [Example 44], the IC50 is 51 nM.

The molecule `CCC(F)(F)OC[C@@H]1C[C@H](Oc2ccc(C(F)(F)F)cc2)CN1c1ccc(C(=O)N[C@@H](CO)c2ccc(S(=O)(=O)CC)cc2)cc1` [Example 45] displayed a 50% inhibitory concentration (IC50) of 17 nM.

In the case of `CCS(=O)(=O)c1ccc([C@H](CO)NC(=O)c2ccc(N3C[C@H](Oc4ccc(C(F)(F)F)cc4)C[C@H]3CCOC(F)F)cc2)cc1` [Example 46], the IC50 was 13.2 nM.

In the case of `CCS(=O)(=O)c1ccc([C@H](CO)NC(=O)c2ccc(N3C[C@@H](Oc4ccc(C(F)(F)F)cc4)C[C@H]3CCOC(F)F)cc2)cc1` [Example 47], the half-inhibitory concentration (IC50) is 4.6 nM.

For the molecule `CCS(=O)(=O)c1ccc([C@H](CO)NC(=O)c2ccc(N3C[C@H](Oc4ccc(C(F)(F)F)cc4)C[C@H]3COCC3CC3)nc2)cc1` [Example 50], the IC50 was 52 nM.

For `CCS(=O)(=O)c1ccc([C@H](CO)NC(=O)c2ccc(N3C[C@H](Oc4ccc(C(F)(F)F)cc4)C[C@H]3COC(F)F)nc2)cc1` [Example 52], half-maximal inhibition (IC50) required 49.9 nM.

In the case of `CCS(=O)(=O)c1ccc([C@H](CO)NC(=O)c2ccc(N3C[C@@H](Oc4ccc(C(F)(F)F)cc4)C[C@H]3COC(F)F)nc2)cc1` [Example 53], the concentration for half-maximal inhibition (IC50) amounted to 3 nM.

Consider `CCC(F)(F)OC[C@@H]1C[C@H](Oc2ccc(C(F)(F)F)cc2)CN1c1ccc(C(=O)N[C@@H](CO)c2ccc(S(=O)(=O)CC)cc2)cn1` [Example 55], for which inhibition was half-maximal at 9 nM (IC50).

Regarding `CCS(=O)(=O)c1ccc(CNC(=O)c2cnc(N3C[C@H](Oc4ccc(C(F)(F)F)cc4)C[C@H]3COCCF)nc2)cc1` [Example 58, N-(4-(ethylsulfonyl)benzyl)-2-((2S, 4R)-2-((2-fluoroethoxy)methyl)-4-(4-(trifluoromethyl)phenoxy)pyrrolidin-1-yl)pyrimidine-5-carboxamide], inhibition was half-maximal at 57.3 nM (IC50).

Molecule `CCS(=O)(=O)c1ccc([C@H](CO)NC(=O)c2cnc(N3C[C@H](Oc4ccc(C(F)(F)F)cc4)C[C@H]3COCCF)nc2)cc1` [Example 59, N—((R)-1-(4-(ethylsulfonyl)phenyl)-2-hydroxyethyl)-2-((2S,4R)-2-((2-fluoroethoxy)methyl)-4-(4-(trifluoromethyl)phenoxy)pyrrolidin-1-yl)pyrimidine-5-carboxamide] displayed an IC50 of 28 nM.

Consider `CCS(=O)(=O)c1ccc([C@H](CO)NC(=O)c2cnc(N3C[C@H](Oc4ccc(C(F)(F)F)cc4)C[C@H]3COCC3CC3)nc2)cc1` [Example 60], for which the IC50 was 33.8 nM.

In the case of `CCS(=O)(=O)c1ccc([C@H](CO)NC(=O)c2cnc(N3C[C@H](Oc4ccc(C(F)(F)F)cc4)C[C@H]3CCOC(F)F)nc2)cc1` [Example 63], the concentration for half-maximal inhibition (IC50) came out at 48 nM.

For `CCS(=O)(=O)c1ccc([C@H](CO)NC(=O)c2cnc(N3C[C@@H](Oc4ccc(C(F)(F)F)cc4)C[C@H]3COC(F)F)nc2)cc1` [Example 64], inhibition was half-maximal at 3 nM (IC50).

The molecule `CCC(F)(F)OC[C@@H]1C[C@H](Oc2ccc(C(F)(F)F)cc2)CN1c1ncc(C(=O)N[C@@H](CO)c2ccc(S(=O)(=O)CC)cc2)cn1` [Example 67] showed an IC50 of 8 nM.

`CCS(=O)(=O)c1ccc([C@H](CO)NC(=O)c2ccc(N3C[C@H](Oc4ccc(C(F)(F)F)cc4)C[C@H]3COC(F)F)cc2)nc1` [Example 68] came in with a half-inhibitory concentration (IC50) of 75.3 nM.

`CCS(=O)(=O)c1ccc([C@H](CO)NC(=O)c2ccc(N3C[C@@H](Oc4ccc(C(F)(F)F)cc4)C[C@H]3COC(F)F)cc2)nc1` [Example 69] came in with a half-maximal inhibitory concentration (IC50) of 4 nM.

As for `CCS(=O)(=O)c1ccc([C@H](CO)NC(=O)c2ccc(N3C[C@@H](Oc4ccc(C(F)(F)F)cc4)C[C@H]3COC(F)F)nc2)nc1` [Example 70], 7.6 nM corresponded to half-maximal inhibition (IC50).

Take `CCS(=O)(=O)c1ccc([C@H](CO)NC(=O)c2cnc(N3C[C@@H](Oc4ccc(C(F)(F)F)cc4)C[C@H]3COC(F)F)nc2)nc1` [Example 71]: the midpoint of inhibition, the IC50, lay at 9.3 nM.

In the case of `CCC(F)(F)OC[C@@H]1C[C@H](Oc2ccc(C(F)(F)F)cc2)CN1c1ccc(C(=O)N[C@@H](CO)c2ccc(S(=O)(=O)CC)cn2)cc1` [Example 73], it took 13 nM to reach half-maximal inhibition (IC50).

With `CCC(F)(F)OC[C@@H]1C[C@H](Oc2ccc(C(F)(F)F)cc2)CN1c1ccc(C(=O)N[C@@H](CO)c2ccc(S(=O)(=O)CC)cn2)cn1` [Example 74], the IC50 is 11 nM.

In turn, `CCC(F)(F)OC[C@@H]1C[C@H](Oc2ccc(C(F)(F)F)cc2)CN1c1ncc(C(=O)N[C@@H](CO)c2ccc(S(=O)(=O)CC)cn2)cn1` [Example 75] registered an IC50 of 12.1 nM.

Molecule `CCS(=O)(=O)c1ccc([C@H](CO)NC(=O)c2ccc(N3CC[C@H](Oc4ccc(C(F)(F)F)cc4)C3)c(F)c2)cc1` [Example 79, N—((R)-1-(4-(ethylsulfonyl)phenyl)-2-hydroxyethyl)-3-fluoro-4-((S)-3-(4-(trifluoromethyl)phenoxy)pyrrolidin-1-yl)benzamide] displayed an IC50 of 13 nM.

For `CCS(=O)(=O)c1ccc([C@H](CO)NC(=O)c2cnc(N3CC[C@H](Oc4ccc(C(F)(F)F)cc4)C3)c(F)c2)cc1` [Example 81, N—((R)-1-(4-(ethylsulfonyl)phenyl)-2-hydroxyethyl)-5-fluoro-6-((S)-3-(4-(trifluoromethyl)phenoxy)pyrrolidin-1-yl)nicotinamide], inhibition was half-maximal at 78 nM (IC50).

With `CCS(=O)(=O)c1ccc([C@H](CO)NC(=O)c2ccc(N3C[C@@H](Oc4ccc5c(c4)OC(F)(F)O5)C[C@H]3COC(F)F)cc2)cc1` [Example 82, 4-((2S,4S)-4-((2,2-difluorobenzo[d][1,3]dioxol-5-yl)oxy)-2-((difluoromethoxy)methyl)pyrrolidin-1-yl)-N—((R)-1-(4-(ethylsulfonyl)phenyl)-2-hydroxyethyl)benzamide], half-maximal inhibition (IC50) required 4 nM.

`CCS(=O)(=O)c1ccc([C@H](CO)NC(=O)c2ccc(N3C[C@@H](Oc4ccc(C(F)(F)F)nc4)C[C@H]3COC(F)F)cc2)cc1` [Example 83] registered a half-inhibitory concentration (IC50) of 6 nM.

Turning to `CCS(=O)(=O)c1ccc([C@H](CO)NC(=O)c2ccc(N3C[C@@H](Oc4ccc(C(F)(F)F)cc4)C[C@H]3COC(F)F)c(F)c2)cc1` [Example 85], the IC50 was found to be 4.5 nM.

The molecule `CCS(=O)(=O)c1ccc([C@H](CO)NC(=O)c2ccc(N3C[C@@H](Oc4ccc(C(F)(F)F)cc4)C[C@H]3COC(F)F)cc2F)cc1` [Example 86] returned an IC50 of 6 nM.

For `CCS(=O)(=O)c1ccc([C@H](CO)NC(=O)c2ccc(N3C[C@@H](Oc4ccc(C(F)(F)F)cc4)C[C@H]3COC(F)F)nc2OC)cc1` [Example 88], the IC50 amounted to 30 nM.

As for `CCS(=O)(=O)c1ccc([C@H](CO)NC(=O)c2ccc(N3C[C@@H](Oc4ccc(C(F)(F)F)cc4)C[C@H]3COC(F)F)c(OC)c2)cc1` [Example 89], the half-inhibitory concentration (IC50) stood at 26 nM.

In the case of `CCS(=O)(=O)c1ccc([C@H](CO)NC(=O)c2ccc(N3C[C@@H](Oc4ccc(C(F)(F)F)cc4)C[C@H]3COC(F)F)cc2OC)cc1` [Example 90], the concentration for half-maximal inhibition (IC50) amounted to 30 nM.

Molecule `CCS(=O)(=O)c1ccc([C@H](CO)NC(=O)c2ccc(N3C[C@@H](Oc4ccc(C(F)(F)F)cc4)C[C@H]3COC(F)(F)F)nc2)cc1` [Example 94, N—((R)-1-(4-(ethylsulfonyl)phenyl)-2-hydroxyethyl)-6-((2S,4S)-2-((trifluoromethoxy)methyl)-4-(4-(trifluoromethyl)phenoxy)pyrrolidin-1-yl)nicotinamide] showed an IC50 of 8 nM.

Still in this experiment, the particulars now being: inhibitory activity of RORγ at the molecular level, FRET 665/615; read-out: IC50.
`CCS(=O)(=O)c1ccc([C@H](CO)NC(=O)c2ccc(N3C[C@H](Oc4ccc(C(F)(F)F)cc4)C[C@H]3COC(C)(F)F)cc2)cc1` [Example 42]: the half-maximal inhibitory concentration (IC50) was 17.8 nM.

These data come from patent US20230067159A1, “ROR-GAMMA-T INHIBITOR, PREPARATION METHOD THEREOF AND USE THEREOF” (priority 2020, published 2023).
